Experiments:
[1] = biological target: V. harveyi wild-type CqsS receptor (Vibrio campbellii, UniProt A7N6S2); test: cell-based; type: cell-based
V. harveyi CqsA = V. harveyi CqsA (Vibrio campbellii, UniProt A7N6R9); test: Coupled-enzyme assay for CqsA enzyme kinetics; type: biochemical; conditions: Vh CqsA, acyl CoA substrate, 200 µM SAM
V. cholerae CqsA = V. cholerae CqsA (Vibrio cholerae serotype O1, UniProt Q9KM65); test: Coupled-enzyme assay for CqsA enzyme kinetics; type: biochemical; conditions: for Km / Vmax / kcat: Vc CqsA, acyl CoA substrate, 200 µM SAM
[2] = biological target: V. cholerae CqsS receptor (wild-type) (Vibrio cholerae serotype O1, UniProt Q9KM66); type: cell-based
V. cholerae CqsS C170F = V. cholerae CqsS C170F (Vibrio cholerae serotype O1, UniProt Q9KM66, C170F); type: cell-based

CCCCCCCC(O)C(=O)CC (stereo not drawn) [4-hydroxyundecan-3-one]
agonist activity on V. harveyi CqsS (light production in JMH626), in words [1]: inactive

CCCCCCCC(=O)C(O)CC (stereo not drawn) [C8-CAI-1, 3-hydroxyundecan-4-one]
EC50 ([1]; EC50, V. harveyi wild-type CqsS): 5 µM | agonist activity on V. harveyi CqsS (light production in JMH626), in words [1]: weak agonist | increase in light production ([1]; JMH626, 10 µM): approximately 400 fold | light production on increasing the concentration ([1]; JMH626, 50 µM): did not further activate light production

CCCCCCCC(=O)SCCNC(=O)CCNC(=O)C(O)C(C)(C)COP(=O)(O)OP(=O)(O)OC[C@H]1O[C@@H](n2cnc3c(N)ncnc32)[C@H](O)[C@@H]1OP(=O)(O)O (stereo partly drawn) [C8 CoA, octanoyl CoA]
Km (V. harveyi CqsA): 14.1 ± 1.3 µM | Vmax (V. harveyi CqsA): 0.64 ± 0.02 µM/min | kcat (V. harveyi CqsA): 10.7 ± 0.4 min⁻¹ | Km (V. cholerae CqsA): 73 ± 4.9 µM | Vmax (V. cholerae CqsA): 1.4 ± 0.05 µM/min | kcat (V. cholerae CqsA): 4.5 ± 0.17 min⁻¹

CCCCCCCCCC(=O)SCCNC(=O)CCNC(=O)C(O)C(C)(C)COP(=O)(O)OP(=O)(O)OC[C@H]1O[C@@H](n2cnc3c(N)ncnc32)[C@H](O)[C@@H]1OP(=O)(O)O (stereo partly drawn) [C10 CoA, decanoyl coenzyme A]
substrate preference of V. cholerae CqsA, C10-CoA over C8-CoA (Km and kcat) (V. cholerae CqsA): four- to sixfold | Km (V. cholerae CqsA): 13 ± 3.1 µM | Vmax (V. cholerae CqsA): 1.2 ± 0.15 µM/min | kcat (V. cholerae CqsA): 19.5 ± 2.5 min⁻¹

C/C=C(\N)C(=O)CCCCCCC [Ea-C8-CAI-1, (Z)-3-aminoundec-2-en-4-one]
agonist activity on V. harveyi CqsS (light production in JMH626), in words [1]: induce maximal light production | difference in EC50 between C8-CAI-1 and Ea-C8-CAI-1 [2]: 30 fold

CCCCCCCCCC(=O)[C@@H](N)CC [Am-CAI-1, (S)-3-aminotridecan-4-one]
potency relative to hydroxy counterpart ([1]; V. harveyi CqsS, data not shown): comparable to the CAI-1 and C8-CAI-1 counterparts | potency relative to hydroxy counterpart ([2]; V. cholerae CqsS, data not shown): comparable to the CAI-1 and C8-CAI-1 counterparts

CCCCCCCCCC(=O)[C@@H](O)CC [CAI-1, (S)-3-hydroxytridecan-4-one]
agonist activity on V. harveyi CqsS (light production in JMH626), in words [1]: insensitive | detection by V. cholerae CqsS C170F, in words (V. cholerae CqsS C170F): only detects Ea-C8-CAI-1 and C8-CAI-1, but not CAI-1 and Ea-CAI-1

— PMC3285556 (Molecular Microbiology, 2011)
